In publication PMC4363092 (Journal of medicinal chemistry, 2014):

Experiments:
TNAP = molecular target: T1, TNAP (Homo sapiens, UniProt P05186); test: TNAP stability assay: hydrolysis by TNAP; assay type: in vitro ADME; conditions: 1 h, pH 9, 100 μM (data not shown)
T1 sequence (P05186 18-502 limits assumed): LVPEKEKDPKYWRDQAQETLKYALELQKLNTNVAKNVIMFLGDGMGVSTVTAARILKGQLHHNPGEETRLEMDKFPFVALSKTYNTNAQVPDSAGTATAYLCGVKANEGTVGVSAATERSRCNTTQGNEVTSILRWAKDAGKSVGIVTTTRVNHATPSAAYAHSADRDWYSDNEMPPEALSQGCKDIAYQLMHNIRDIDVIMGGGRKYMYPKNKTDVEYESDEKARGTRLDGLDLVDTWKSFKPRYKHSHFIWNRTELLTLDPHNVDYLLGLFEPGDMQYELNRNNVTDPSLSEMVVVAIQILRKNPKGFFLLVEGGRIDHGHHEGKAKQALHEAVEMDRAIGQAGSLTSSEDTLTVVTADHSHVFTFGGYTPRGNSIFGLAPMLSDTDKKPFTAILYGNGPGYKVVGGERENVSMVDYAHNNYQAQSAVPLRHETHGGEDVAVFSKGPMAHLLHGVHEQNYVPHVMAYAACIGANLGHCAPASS

P2Y1 receptor = P2Y1 receptor (Homo sapiens, UniProt P47900); test: [Ca2+]i elevation in 1321N1 astrocytoma cells expressing GFP-P2Y1 receptor; assay type: cell-based; conditions: EC50 of the nucleotide in relation to the EC50 of ATP
P2Y1 receptor, sequence (P47900 whole entry): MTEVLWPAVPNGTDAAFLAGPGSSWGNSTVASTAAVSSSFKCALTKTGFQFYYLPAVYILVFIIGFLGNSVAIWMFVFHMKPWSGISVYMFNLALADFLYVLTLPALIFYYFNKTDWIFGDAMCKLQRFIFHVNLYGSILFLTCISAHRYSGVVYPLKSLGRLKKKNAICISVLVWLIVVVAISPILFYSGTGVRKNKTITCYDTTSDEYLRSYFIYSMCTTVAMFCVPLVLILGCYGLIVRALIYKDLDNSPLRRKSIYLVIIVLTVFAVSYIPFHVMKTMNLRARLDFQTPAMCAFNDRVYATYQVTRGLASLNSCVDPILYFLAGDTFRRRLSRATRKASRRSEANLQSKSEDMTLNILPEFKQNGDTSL

Nc1ncnc2c1ncn2[C@@H]1O[C@H](COP(=O)(O)OP(=O)(O)OP(=O)(O)O)[C@@H](O)[C@H]1O [ATP, reference compound]
hydrolysis by TNAP (TNAP): 100% | increase in efficacy vs ATP, P2Y1 (P2Y1 receptor): 1
